For 81 molecules, IC50 results are on record in the Kinase Knowledgebase extract (Sharma et al. 2016).

Where only a bound is given, the exact number is not on record here.

The target in the experiment is MAPK14;MAPK11;MAPK12 (human) (UniProt Q16539). The experiment can be described thus: Inhibition of p38 Kinase Activity.

Take `Cc1ccccc1NC(=O)c1ccc(C)c(Nc2nc(N[C@H]3CCNC3)nc(N(C)CC(C)(C)C)n2)c1`: the IC50 – broadly, the concentration that inhibits the measured activity by half – was less than 1000 nM.

The molecule `Cc1ccc(C(N)=O)cc1Nc1nc(NCC2CC3CCC2C3)nc(N[C@H]2CCNC2)n1` (stereo partly specified) had an IC50 of less than 1000 nM. To `Cc1ccc(-c2ncc[nH]2)cc1Nc1nc(N[C@@H]2CCNC2)nc(N(C)CC(C)(C)C)n1` belongs less than 1000 nM; to `CC(=O)Nc1ccc(C)c(Nc2nc(NCC(C)(C)C)nc(N[C@H]3CCNC3)n2)c1`, less than 1000 nM. The same measure for `CC(=O)N(C)CCCN(C)c1nc(NCC(C)c2ccccc2)nc(Nc2ccc3ncsc3c2)n1` (stereo unspecified): less than 10000 nM; for `Cc1ccc(C(N)=O)cc1Nc1nc(NC[C@@H]2CC[C@H]3C[C@H]2C3(C)C)nc(N[C@H]2CCNC2)n1`: less than 1000 nM. To `Cc1ccc(C(N)=O)cc1Nc1nc(N[C@H]2CCCC[C@H]2NC(C)C)nc(N(C)CC(C)(C)C)n1` belongs less than 1000 nM; to `c1nc2ccc(Nc3nc(CCC4CCCCC4)nc(N4CCNCC4)n3)cc2s1`, less than 10000 nM; to `CN(CC1CC[C@H]2C[C@@H]1C2(C)C)c1nc(Nc2ccc3ncsc3c2)nc(N2CCN(C(=O)CCC(=O)O)CC2)n1` (stereo partly specified), less than 10000 nM. With `COc1ccccc1NC(=O)c1ccc(C)c(Nc2nc(N[C@H]3CCNC3)nc(N(C)CC(C)(C)C)n2)c1`, the IC50 is less than 1000 nM. To `CCOC(=O)N1CCN(c2nc(NC[C@@H]3CC[C@H]4C[C@@H]3C4(C)C)nc(Nc3ccc4ncsc4c3)n2)CC1` belongs less than 10000 nM. To `CC1(C)[C@@H]2CC[C@@H](CNc3nc(NC4CCNCC4)nc(N4CCc5ccc([N+](=O)[O-])cc54)n3)[C@H]1C2` belongs less than 1000 nM; to `CC(C)OCCNc1cc(N(C)C)nc(-n2cnc3ccccc32)n1`, less than 10000 nM. The same measure for `CONC(=O)c1ccc(C)c(Nc2nc(N[C@@H]3CCNC3)nc(N(C)CC(C)C(F)(F)F)n2)c1` (stereo partly specified): less than 1000 nM; for `CNC(=O)c1ccc(C(F)(F)F)c(Nc2nc(N[C@H]3CCNC3)nc(N(C)CC(C)(C)C)n2)c1`: less than 1000 nM; for `Cc1c(Cl)cc(C(N)=O)cc1Nc1nc(N[C@H]2CCNC2)nc(N(C)CC(C)(C)C)n1`: less than 1000 nM. As for `Cc1ccc(C(N)=O)cc1Oc1nc(N[C@@H]2CCNC2)nc(N(C)CC(C)(C)C)n1`, the IC50 is less than 30000 nM. To `CC(CNc1nc(Nc2ccc3ncsc3c2)nc(N2CCN(C(=O)c3ccccc3)CC2)n1)c1ccccc1` (stereo unspecified) belongs less than 10000 nM; to `CC1(C)[C@H]2CC[C@H](CNc3nc(Cl)nc(Nc4ccc5ncsc5c4)n3)[C@@H]1C2`, less than 10000 nM. As for `CONC(=O)c1ccc(C)c(Sc2nc(N(C)CC(C)(C)C)nc(N3CCCN(C)CC3)n2)c1`, the IC50 is less than 30000 nM. As for `Cc1ccc(-c2n[nH]c(=O)[nH]2)cc1Nc1nc(N(C)CC(C)(C)C)nc(N2CCCN(C)CC2)n1`, the IC50 is less than 1000 nM.

For the molecule `Cc1ccc(C(N)=O)cc1Nc1nc(NC2CCCC2)nc(N(CCO)Cc2ccccc2)n1`, the IC50 is less than 1000 nM. The same measure for `CONC(=O)c1ccc(C)c(Oc2nc(N[C@@H]3CCNC3)nc(N(C)CC(C)(C)C)n2)c1`: less than 30000 nM; for `CCONC(=O)c1ccc(C)c(Nc2nc(N[C@H]3CCNC3)nc(N(C)CC(C)C)n2)c1`: less than 1000 nM; for `C[C@H](CNc1nc(NCCO)nc(Nc2ccc3ncsc3c2)n1)c1ccccc1`: less than 10000 nM.

`CCCc1nc(NCc2ccc(S(N)(=O)=O)cc2)nc(Nc2cccc(-c3ccccc3)c2)n1` had an IC50 of less than 10000 nM. To `COc1ccccc1CN1CCC(Nc2nc(Nc3cc(C(N)=O)ccc3C)nc(N(C)CC(C)C)n2)C1` (stereo unspecified) belongs less than 1000 nM; to `CONC(=O)c1ccc(C)c(Nc2nc(NCCCN3CCCC3)nc(N(C)CC(C)(C)C)n2)c1`, less than 1000 nM; to `Cc1cccc(CN2CC[C@H](Nc3nc(Nc4cc(C(N)=O)ccc4C)nc(N(C)CC(C)C)n3)C2)n1`, less than 1000 nM. On to `CC(CNc1nc(Nc2ccc3ncsc3c2)nc(N2CC3CC2CN3C(=N)N)n1)c1ccccc1` (stereo unspecified), for which the IC50 was less than 10000 nM.

`COCCC(=O)N1CC[C@@H](Nc2nc(Nc3cc(C(N)=O)ccc3C)nc(N(C)CC(C)C)n2)C1` returned an IC50 of less than 1000 nM.

As for `COc1ccc(C(=O)N(C)CCCN(C)c2nc(NCC(C)c3ccccc3)nc(Nc3ccc4ncsc4c3)n2)cc1` (stereo unspecified), the IC50 is less than 10000 nM. Take `Cc1ccc(N)cc1Nc1nc(N[C@H]2CCNC2)nc(N(C)CC(C)(C)C)n1`: the IC50 was less than 1000 nM.

`Cc1ccc(CNC(C)C)cc1Nc1nc(N[C@H]2CCNC2)nc(N(C)CC(C)(C)C)n1` returned an IC50 of less than 1000 nM. To `Cc1ccccc1NC(=S)N(C)CCCN(C)c1nc(NCC(C)c2ccccc2)nc(Nc2ccc3ncsc3c2)n1` (stereo unspecified) belongs less than 10000 nM; to `CNCCN(C)c1nc(NCC(C)c2ccccc2)nc(Nc2cccc(Br)c2)n1` (stereo unspecified), less than 10000 nM; to `OC(CNc1nc(Cl)nc(Nc2ccc3ncsc3c2)n1)c1ccccc1` (stereo unspecified), less than 10000 nM. The same measure for `CCNC(=O)c1ccc(C)c(Nc2nc(N[C@H]3CCNC3)nc(N(C)CC(C)(C)C)n2)c1`: less than 1000 nM. The same measure for `Clc1nc(Nc2ccc3ncsc3c2)nc(N2CCCC(c3ccccc3)C2)n1` (stereo unspecified): less than 10000 nM. `Cc1ccc(C(N)=O)cc1Nc1nc(N[C@H]2CN[C@@H](CO)C2)nc(N(C)CC(C)(C)C)n1` yielded an IC50 of less than 1000 nM. To `Cc1ccc(C(=O)NCC(F)(F)F)cc1Nc1nc(N[C@H]2CCNC2)nc(N(C)CC(C)(C)C)n1` belongs less than 1000 nM; to `Cc1ccc(C(=O)NCC(F)(F)F)cc1Nc1nc(N[C@H]2CCNC2)nc(N(C)CC(C)C)n1`, less than 1000 nM. The same measure for `Cc1ccc(C(N)=O)cc1Nc1nc(NCC23CC4CC(CC(C4)C2)C3)nc(N[C@H]2CCNC2)n1`: less than 1000 nM; for `CONC(=O)c1ccc(C)c(Nc2nc(NCCN3CCCC3)nc(N(C)CC(C)(C)C)n2)c1`: less than 1000 nM; for `Cc1ccc(C(N)=O)cc1Nc1nc(N[C@H]2CCN(Cc3cccnc3)C2)nc(N(C)CC(C)C)n1`: less than 1000 nM.

For the molecule `CCCCNC(=O)c1ccc(C)c(Nc2nc(N[C@H]3CCNC3)nc(N(C)CC(C)(C)C)n2)c1`, the IC50 was less than 1000 nM. To `CCCCNc1nc(Nc2cc(C(=O)NOC)ccc2C)nc(N(C)CC(C)(C)C)n1` belongs less than 1000 nM; to `CCNC(=O)N1CC2CC1CN2c1nc(NCC(C)c2ccccc2)nc(Nc2ccc3ncsc3c2)n1` (stereo unspecified), less than 10000 nM. To `CC(=O)N1CCN(c2nc(Nc3ccc4ncsc4c3)nc(N(C)CC3CCC4CC3C4(C)C)n2)CC1` (stereo unspecified) belongs less than 10000 nM. To `CONC(=O)c1ccc(C)c(Nc2nc(N(C)CCN(C)C)nc(N(C)CC(C)(C)C)n2)c1` belongs less than 1000 nM; to `Cc1ccc(C(=O)NC(C)C)cc1Nc1nc(N[C@H]2CCNC2)nc(N(C)CC(C)C)n1`, less than 1000 nM; to `CONC(=O)c1ccc(C)c(Nc2cc(F)nc(N(C)CC(C)(C)C)n2)c1`, less than 1000 nM. As for `Cc1ccc(C(N)=O)cc1Nc1nc(N[C@@H]2CCN(C(C)C(C)C)C2)nc(N(C)CC(C)(C)C)n1` (stereo partly specified), the IC50 was less than 1000 nM. `CC(CNc1nc(Cl)nc(Nc2ccc3ncsc3c2)n1)c1ccc(Cl)cc1` (stereo unspecified): the IC50 is less than 10000 nM.

`CNC1CCN(c2cc(NCCOC(C)C)nc(-n3cnc4ccccc43)n2)C1` (stereo unspecified) displayed an IC50 of less than 10000 nM. As for `Nc1nc(NCCc2ccccc2)nc(Nc2ccc(S(=O)(=O)Nc3ncccn3)cc2)n1`, the IC50 is less than 10000 nM.

Regarding `Cc1ccc(C(N)=O)cc1Nc1nc(O)nc(N[C@H]2CCNC2)n1`, the IC50 was less than 1000 nM. To `Cc1ccc(C(N)=O)cc1Nc1nc(N[C@H]2CCNC2)nc(N(C)CC(C)c2ccccc2)n1` (stereo partly specified) belongs less than 1000 nM.

Regarding `CNC(=O)c1ccc(C)c(Nc2nc(N[C@H]3CCN(C(C)C)C3)nc(N(C)CC(C)(C)C)n2)c1`, the IC50 is less than 1000 nM. `Cc1ccc(C(=O)NCCC(C)C)cc1Nc1nc(N[C@H]2CCNC2)nc(N(C)CC(C)(C)C)n1` returned an IC50 of less than 1000 nM. For `COCCNC(=O)c1ccc(C)c(Nc2nc(N[C@H]3CCNC3)nc(N(C)CC(C)(C)C)n2)c1`, the IC50 is less than 1000 nM. To `CCONC(=O)c1ccc(C)c(Nc2nc(NC3CCS(=O)(=O)C3)nc(N(C)CC(C)(C)C)n2)c1` (stereo unspecified) belongs less than 1000 nM; to `CC(CN(C)c1nc(Nc2ccc3ncsc3c2)nc(N2CCNCC2)n1)c1ccccc1` (stereo unspecified), less than 10000 nM; to `CC(CNc1nc(Nc2ccc3ncsc3c2)nc(N(C)CCCN(C)C(=O)c2ccco2)n1)c1ccccc1` (stereo unspecified), less than 10000 nM.

`Cc1ccc2c(c1)ncn2-c1nc(F)cc(NCCOC(C)C)n1` showed an IC50 of less than 10000 nM. To `Cc1ccc(C(N)=O)cc1Nc1nc(O)nc(NCC(C)c2ccccc2)n1` (stereo unspecified) belongs less than 1000 nM; to `Cc1ccc(C(=O)NC(C)C)cc1Nc1nc(N[C@H]2CCNC2)nc(N(C)CC(C)(C)C)n1`, less than 1000 nM. The same measure for `c1nc2ccc(Nc3nc(N4CCNCC4)nc(N4CCC5CCCCC5C4)n3)cc2s1` (stereo unspecified): less than 10000 nM; for `CC(CNc1nc(Nc2ccc3ncsc3c2)nc(N(C)CCCN(C)C(=O)c2cccnc2)n1)c1ccccc1` (stereo unspecified): less than 10000 nM; for `Cc1ccc(C(N)=O)cc1Nc1cc(NC(C)c2ccccc2)nc(NCC(N)=O)n1` (stereo unspecified): less than 1000 nM. To `Cc1ccc(C(N)=O)cc1Nc1nc(N[C@H]2CCN(CC(C)(C)C)C2)nc(N(C)CC(C)(C)C)n1` belongs less than 1000 nM; to `CONC(=O)c1ccc(C)c(Sc2nc(N[C@@H]3CCNC3)nc(N(C)CC(C)(C)C)n2)c1`, less than 30000 nM.

In turn, `COC(=O)c1ccc(C)c(Nc2nc(N[C@H]3CCNC3)nc(N(C)CC(C)(C)C)n2)c1` gave an IC50 of less than 1000 nM. To `CN(CC1CCCCC1)c1nc(Nc2ccc3ncsc3c2)nc(N2CCNCC2)n1` belongs less than 10000 nM; to `Cc1ccc(C(N)=O)cc1Nc1nc(N[C@H]2CCCC[C@H]2O)nc(N(C)CC(C)C)n1`, less than 1000 nM. To `Cc1cc(Cl)c(C(N)=O)cc1Nc1nc(N[C@H]2CCNC2)nc(N(C)CC(C)C)n1` belongs less than 1000 nM; to `CCC[C@@H]1C[C@@H](Nc2nc(Nc3cc(C(N)=O)ccc3C)nc(N(C)CC(C)(C)C)n2)CN1`, less than 1000 nM.

Regarding `CC1(C)[C@H]2CC[C@@H](CNc3nc(Nc4ccc5ncsc5c4)nc(N4CCNCC4)n3)[C@@H]1C2`, the IC50 was less than 10000 nM.

`CNC(=O)c1ccc(C)c(Nc2nc(NC3CCN(Cc4ccccc4)C3)nc(N(C)CC(C)C)n2)c1` (stereo unspecified): the IC50 is less than 1000 nM. On to `CNC(=O)c1ccc(C)c(Nc2nc(N[C@H]3CCNC3)nc(N(C)CC(C)C)n2)c1`, for which the IC50 is less than 1000 nM.

In turn, `CCNC(=O)N(C)CCCN(C)c1nc(NCC(C)c2ccccc2)nc(Nc2ccc3ncsc3c2)n1` (stereo unspecified) showed a half-inhibitory concentration (IC50) of less than 10000 nM.
